# Assay results published in publication PMC6905855, “Agonist-specific voltage-dependent gating of lysosomal two-pore Na^+ channels” (eLife, 2019).
# “And” between values parts separate entries of the source, which are not always exact repeats. Equal values may be shown once.
# What was measured:
# hTPC2 = target: T1, hTPC2 (Homo sapiens, UniProt Q8NHX9); assay: Whole-endolysosome recordings of ITPC2; type: biochemical; conditions: for Normalized I-TPC2: WT TPC2
# T1 construct: expressed in transfected cells; host or cells: Cos1 and HEK293
# [1] = target: T2, surface-expressing mutant TPC2 channel (TPC2^LL/AA) in HEK293 cells (Homo sapiens, UniProt Q8NHX9, L11A/L12A); assay: Whole-cell recordings of ITPC2-LL/AA; type: cell-based
# T2 construct: expressed in transfected cells; host or cells: HEK293
# Outline: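 HEK293 cells transiently expressing EGFP-tagged human TPC2 L11A/L12A, a plasma-membrane-targeted mutant, recorded 24–36 h post-transfection. Whole-cell patch clamp with fast perfusion of bath solutions; currents digitized at 10 kHz and filtered at 2 kHz.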
# hTPC1 = target: T3, hTPC1 (Homo sapiens, UniProt Q9ULQ1); assay: Whole-endolysosome recordings of ITPC1; type: biochemical
# T3 construct: expressed in transfected cells; host or cells: Cos1
# Description: It was therefore of interest to explore whether TCAs/LyNa-VAs could also act on TPC1. To investigate this, we used two different voltage paradigms. […] Second, we used a tail current paradigm to measure the amplitude of the peak inward current at −120 mV following prolonged steps to various potentials (Figure 4E).
# Figure 4. […] HP = 0 mV. […] Dotted lines in A indicate where the currents were measured. […] Data are presented as Mean ± S.E.M (n = 3 patches). […] (G) Normalized I-V plots of basal voltage-dependent currents in WT TPC1- and TPC1^R540I-transfected cells. […] Figure 4—source data 1. […] Figure 4—figure supplement 1. […] (A) A voltage protocol that elicited ITPC1 tail currents as shown in Figure 4E (from −140 to 100 mV with a ∆V = 20 mV, 1 s with a 10 s inter-step interval). Arrows indicate where tail currents were measured. (B) A voltage protocol that elicited ITPC1 tail currents as shown in C. […] HP = 0 mV. […] (A) Basal whole-endolysosome ITPC1 (left) or ITPC1-R540I (right) was elicited by voltage steps (−140 to +100 mV with ΔV = 20 mV) in the absence of PI(3,5)P2 in TPC1-transfected Cos1 cells ([She et al., 2019]). Tail currents were elicited at −120 mV. (B) The effects of PI(3,5)P2 (0.3 µM) on ITPC1 (left) and ITPC1-R540I (right) step currents. […] A preconditioning voltage (+80 mV, 0.1 s) was applied before voltage steps starting from −140 to 100 mV (0.5 s, ∆V = 20 mV).
# All TPC1 and TPC2 mutants were generated with a site-directed mutagenesis kit (Qiagen) using EGFP- human TPC1 and TPC2 as the templates. All constructs were confirmed by DNA sequencing.
# Whole-endolysosome recordings were performed on manually isolated enlarged endolysosomes ([Wang et al., 2012]). In brief, a patch pipette was pressed against a cell and quickly pulled away to slice the cell membrane. Enlarged endolysosomes were released into a dish and identified by monitoring EGFP-TPC1/2 or the mCherry-TPC1/2 fluorescence. After formation of a gigaseal between the patch pipette and the enlarged endolysosome, capacitance transients were compensated. Voltage steps of several hundred mVs with millisecond duration were then applied to break into the vacuolar membrane. The whole-endolysosome configuration was verified by the re-appearance of capacitance transients after break-in.
# Data were collected using an Axopatch 200A patch clamp amplifier, Digidata 1440, and pClamp 10.2 software (Axon Instruments). Whole-endolysosome currents were digitized at 10 kHz and filtered at 2 kHz. All experiments were conducted at room temperature (21–23°C), and all recordings were analyzed with pClamp 10.2, and Origin 8.0 (OriginLab, Northampton, MA). The permeability to cations (relative to PNa) was estimated based on following equations ([Lewis, 1979]) and Erev measurement under bi-ionic conditions:(1) PX/PNa=γNa/γX{[Na^+]Luminal/[X^+]Cytoplasmic}{exp([…])} (2) PCa/PNa=γNa/γCa{[Na^+]Cytoplasmic/[4[Ca^2+]Luminal}{exp(ErevF/RT)}{1+exp(ErevF/RT)} where R, T, F, Erev, and γ are, respectively, the gas constant, absolute temperature, Faraday constant, reversal potential, and activity coefficient. The liquid junction potentials were measured and corrected as described ([Neher, 1992]).
# [2] = system: endogenous TPCs in WT HAP1 cells; assay: Whole-endolysosome recordings of endogenous ITPC in WT HAP1 cells; type: biochemical, human; conditions: for whole-endolysome ITPC current: wt HAP1, LyNa-VA1.1 (50 µM) co-applied with PI(3,5)P2 (0.3 µM)
# T2 sequence (Q8NHX9 whole entry L11A/L12A): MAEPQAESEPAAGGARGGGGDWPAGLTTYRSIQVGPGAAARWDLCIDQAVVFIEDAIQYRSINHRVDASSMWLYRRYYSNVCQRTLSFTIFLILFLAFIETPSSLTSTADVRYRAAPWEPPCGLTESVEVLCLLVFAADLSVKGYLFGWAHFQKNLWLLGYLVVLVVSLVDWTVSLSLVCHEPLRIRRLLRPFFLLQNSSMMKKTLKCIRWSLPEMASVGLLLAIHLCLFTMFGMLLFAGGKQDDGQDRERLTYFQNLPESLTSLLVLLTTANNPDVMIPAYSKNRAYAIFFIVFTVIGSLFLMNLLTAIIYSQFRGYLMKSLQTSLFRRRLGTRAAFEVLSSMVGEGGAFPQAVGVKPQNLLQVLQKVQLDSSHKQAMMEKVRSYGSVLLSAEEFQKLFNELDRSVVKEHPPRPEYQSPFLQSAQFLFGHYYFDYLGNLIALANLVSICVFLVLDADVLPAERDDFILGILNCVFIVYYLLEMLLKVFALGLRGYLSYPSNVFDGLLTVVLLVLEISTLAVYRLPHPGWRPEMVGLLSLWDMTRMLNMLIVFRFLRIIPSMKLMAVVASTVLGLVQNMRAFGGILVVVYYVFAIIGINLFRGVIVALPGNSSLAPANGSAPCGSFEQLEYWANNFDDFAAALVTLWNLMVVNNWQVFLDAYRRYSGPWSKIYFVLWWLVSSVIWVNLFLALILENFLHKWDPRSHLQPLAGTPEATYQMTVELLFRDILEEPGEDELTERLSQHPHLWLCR
# T1 sequence (Q8NHX9 whole entry): as the sequence (Q8NHX9 whole entry L11A/L12A) above, with A11L, A12L counted along it
smiles,measurement,setting,value
"CN(C)CCCN1c2ccccc2CCc2ccc(Cl)cc21 [LyNa-VA1.1, Clomipramine]","combined effect with PI(3,5)P2 on whole-endolysosome ITPC2 (in words)","hTPC2; PI(3,5)P2 50 nM",synergistic effects
same,EC50,"hTPC2; WT +PI(3,5)P2 (50 nM), whole-endolysosome, Figure 3C",12 ± 7 µM
same,EC50,"hTPC2; WT -PI(3,5)P2, whole-endolysosome, Figure 3C",48 ± 16 µM
same,Normalized I-TPC2,"hTPC2; 1 µM + PI(3,5)P2 50nM, individual patches",0.3375 and 0.1568 and 0.08956
same,Normalized I-TPC2,"hTPC2; 1 µM + PI(3,5)P2 50nM, mean",0.1946
same,Normalized I-TPC2,"hTPC2; 3 µM + PI(3,5)P2 50nM, individual patches",0.35 and 0.3063 and 0.1
same,Normalized I-TPC2,"hTPC2; 3 µM + PI(3,5)P2 50nM, mean",0.2521
same,Normalized I-TPC2,"hTPC2; 10 µM + PI(3,5)P2 50nM, individual patches",0.5558 and 0.7252 and 0.2889
same,Normalized I-TPC2,"hTPC2; 10 µM + PI(3,5)P2 50nM, mean",0.5233
same,Normalized I-TPC2,"hTPC2; 10 µM, no PI(3,5)P2, individual patches",0.08625 and 0.1427 and 0.1845
same,Normalized I-TPC2,"hTPC2; 10 µM, no PI(3,5)P2, mean",0.1378
same,Normalized I-TPC2,"hTPC2; 20 µM, no PI(3,5)P2, individual patches",0.2419 and 0.1804 and 0.1168
same,Normalized I-TPC2,"hTPC2; 20 µM, no PI(3,5)P2, mean",0.1797
same,Normalized I-TPC2,"hTPC2; 30 µM + PI(3,5)P2 50nM, individual patches",1 (2×) and 0.3222
same,Normalized I-TPC2,"hTPC2; 30 µM + PI(3,5)P2 50nM, mean",0.7741
same,Normalized I-TPC2,"hTPC2; 50 µM, no PI(3,5)P2, individual patches",0.8473 and 0.4535 and 0.5893
same,Normalized I-TPC2,"hTPC2; 50 µM, no PI(3,5)P2, mean",0.63
same,Normalized I-TPC2,"hTPC2; 100 µM + PI(3,5)P2 50nM, individual patches",0.7417 and 0.7423 and 1
same,Normalized I-TPC2,"hTPC2; 100 µM + PI(3,5)P2 50nM, mean",0.828
same,Normalized I-TPC2,"hTPC2; 100 µM, no PI(3,5)P2, individual patches",1 (2×) and 0.99
same,Normalized I-TPC2,"hTPC2; 100 µM, no PI(3,5)P2, mean",0.9967
same,Normalized I-TPC2,"hTPC2; 200 µM, no PI(3,5)P2, individual patches",0.7106 and 0.507 and 0.6545
same,Normalized I-TPC2,"hTPC2; 200 µM, no PI(3,5)P2, mean",0.624
same,EC50,"hTPC2; WT+pip2 (50 nM), MEAN (Fig. 3D)",14.6 µM
same,EC50,"hTPC2; WT+pip2 (50 nM), individual patches (Fig. 3D)",27 µM and 12.6 µM and 4.3 µM
same,EC50,"hTPC2; WT-pip2, MEAN (Fig. 3D)",45.1 µM
same,EC50,"hTPC2; WT-pip2, individual patches (Fig. 3D)",56 µM and 48.4 µM and 30.8 µM
same,ITPC2,hTPC2; whole endolysosome recordings with 100 µM of LyNa-VAs at −120 mV,945 ± 111 pA
same,activation of whole-cell ITPC2-LL/AA (in words),[1],activated
same,"current, whole-cell ITPC2-LL/AA",[1],1835.6 pA and 1904.2 pA and 1632.7 pA and 1290 pA and 1968.1 pA
same,EC50,"[1]; whole-cell recordings at −140 mV, TPC2^LL/AA-transfected HEK293 cells, read-out: EC50",43 ± 2 µM
same,effect on whole-endolysosome ITPC1 (in words),hTPC1,"profound suppression of outward currents at potentials positive to Erev (~0 mV), and a substantial enhancement of inward currents negative to Erev"
same,Dose-dependent activation of TPC1 (normalized ITPC1),"hTPC1; 3 µM, individual patches",0.0359 and 0.105 and 0
same,Dose-dependent activation of TPC1 (normalized ITPC1),"hTPC1; 3 µM, mean",0.04696
same,Dose-dependent activation of TPC1 (normalized ITPC1),"hTPC1; 10 µM, individual patches",0.1722 and 0.1955 and 0.1208
same,Dose-dependent activation of TPC1 (normalized ITPC1),"hTPC1; 10 µM, mean",0.1629
same,Dose-dependent activation of TPC1 (normalized ITPC1),"hTPC1; 30 µM, individual patches",0.6041 and 0.3178 and 0.3982
same,Dose-dependent activation of TPC1 (normalized ITPC1),"hTPC1; 30 µM, mean",0.44
same,Dose-dependent activation of TPC1 (normalized ITPC1),"hTPC1; 100 µM, individual patches",1 and 0.7031 and 0.8638
same,Dose-dependent activation of TPC1 (normalized ITPC1),"hTPC1; 100 µM, mean",0.8556
same,Dose-dependent activation of TPC1 (normalized ITPC1),"hTPC1; 300 µM, individual patches",0.8072 and 1 (2×)
same,Dose-dependent activation of TPC1 (normalized ITPC1),"hTPC1; 300 µM, mean",0.9357
same,τ of ITPC1 step currents,"hTPC1; hTPC1, LyNa-VA1.1 (100 µM), Figure 4A",155 ± 1 ms
same,V1/2 of ITPC1 G-V curve,"hTPC1; hTPC1, LyNa-VA1.1 (100 µM), Figure 4F",-30 ± 5 mV
same,τ of ITPC1 tail currents,"hTPC1; hTPC1, tail currents at −120 mV, LyNa-VA1.1 (100 µM), Figure 4E",203 ± 2 ms
same,EC50,"hTPC1; whole-endolysosome, n = 3 patches, read-out: EC50, activation of TPC1",27 ± 2 µM
same,activation of whole-endolysosome ITPC in WT HAP1 cells (in words),[2],activated whole-endolysome ITPC in WT
same,whole-endolysome ITPC current,[2]; individual,252.1 pA and 207.1 pA and 321.7 pA and 271.3 pA
same,whole-endolysome ITPC current,[2]; mean,263.05 pA
